This is an account of results in ChEMBL document CHEMBL1909046, “DrugMatrix in vitro pharmacology data”.

The target of data set [1] is Tyrosine-protein kinase Fyn (Homo sapiens, UniProt P06241). The data set can be described thus: biochemical. Conditions: insect cells. The class given is cell-based, Insect cells.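 Also: enzymatic inhibition of Fyn kinase activity measured with Poly(Glu:Tyr) as the phosphorylation substrate; in other assays of this panel Not Active means under 50% inhibition at 10 µM.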
Tyrosine-protein kinase Fyn, sequence (P06241 whole entry): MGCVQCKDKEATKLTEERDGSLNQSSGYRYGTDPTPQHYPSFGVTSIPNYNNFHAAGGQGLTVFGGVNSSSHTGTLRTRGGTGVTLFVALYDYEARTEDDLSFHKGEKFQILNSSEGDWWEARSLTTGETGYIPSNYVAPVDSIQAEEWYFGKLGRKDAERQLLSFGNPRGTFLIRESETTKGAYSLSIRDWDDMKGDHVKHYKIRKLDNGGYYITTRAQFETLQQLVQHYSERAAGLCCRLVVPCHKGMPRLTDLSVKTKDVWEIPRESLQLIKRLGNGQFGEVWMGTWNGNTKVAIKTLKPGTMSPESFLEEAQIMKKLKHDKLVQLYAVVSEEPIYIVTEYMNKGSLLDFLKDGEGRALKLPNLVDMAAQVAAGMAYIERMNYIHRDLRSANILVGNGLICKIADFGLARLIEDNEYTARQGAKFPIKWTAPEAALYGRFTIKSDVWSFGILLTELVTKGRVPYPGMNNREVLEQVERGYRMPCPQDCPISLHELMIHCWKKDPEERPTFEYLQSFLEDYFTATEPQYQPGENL
For the next data set, the target named is Cytochrome P450 2C19 (Homo sapiens, UniProt P33261). Also: in other assays of this panel Not Active means under 50% inhibition at 10 µM.
Cytochrome P450 2C19, sequence (P33261 whole entry): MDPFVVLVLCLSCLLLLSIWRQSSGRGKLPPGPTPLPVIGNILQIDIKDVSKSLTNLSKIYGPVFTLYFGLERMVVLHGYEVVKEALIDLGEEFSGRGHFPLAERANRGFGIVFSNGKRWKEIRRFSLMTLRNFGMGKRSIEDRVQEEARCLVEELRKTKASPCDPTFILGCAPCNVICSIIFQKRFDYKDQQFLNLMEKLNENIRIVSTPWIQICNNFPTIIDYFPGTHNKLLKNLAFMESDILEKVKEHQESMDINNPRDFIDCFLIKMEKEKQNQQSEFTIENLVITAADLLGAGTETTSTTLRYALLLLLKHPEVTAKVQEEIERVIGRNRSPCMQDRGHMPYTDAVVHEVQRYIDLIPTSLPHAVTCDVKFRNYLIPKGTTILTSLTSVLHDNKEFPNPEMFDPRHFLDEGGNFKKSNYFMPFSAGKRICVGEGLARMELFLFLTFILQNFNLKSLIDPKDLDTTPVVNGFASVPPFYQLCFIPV
Data set [2] concerns the target Beta-1 adrenergic receptor (Homo sapiens, UniProt P08588). Nature of the data set: DRUGMATRIX: Adrenergic beta1 radioligand binding (ligand: [125I] Cyanopindolol). The class given is cell membranes, CHO-K1, Membrane. Conditions: cho-k1; Not Active = under 50% inhibition at 10 µM.
Another data set addresses Cytochrome P450 2D6 (Homo sapiens, UniProt P10635). Conditions: bti-tn-5b1-4.
A further data set addresses T1, D(4) dopamine receptor (Homo sapiens, UniProt P21917).
T1 sequence (P21917 whole entry): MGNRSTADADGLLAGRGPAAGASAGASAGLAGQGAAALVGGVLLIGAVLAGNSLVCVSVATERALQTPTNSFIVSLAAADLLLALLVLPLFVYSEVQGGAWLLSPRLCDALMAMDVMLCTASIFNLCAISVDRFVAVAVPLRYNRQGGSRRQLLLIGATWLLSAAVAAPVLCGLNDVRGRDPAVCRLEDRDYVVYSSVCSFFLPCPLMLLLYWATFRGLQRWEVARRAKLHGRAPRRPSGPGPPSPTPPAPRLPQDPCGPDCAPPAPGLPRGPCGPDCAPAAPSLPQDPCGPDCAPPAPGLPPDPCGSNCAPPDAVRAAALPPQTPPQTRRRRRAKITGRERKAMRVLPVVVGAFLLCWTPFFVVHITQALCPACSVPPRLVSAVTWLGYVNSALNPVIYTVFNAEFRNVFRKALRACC
The data set can be described thus: DRUGMATRIX: Dopamine D4.2 radioligand binding (ligand: [3H] Spiperone). The class given is cell membranes, CHO-K1, Membrane. Conditions: cho-k1; Not Active = under 50% inhibition at 10 µM.

The nature of data set [3]: DRUGMATRIX: Tumor Necrosis Factor (TNF), Non-Selective radioligand binding (ligand: [125I] TNF-alpha). Particulars: u-937; Not Active = under 50% inhibition at 10 µM. The class given is cell membranes, Membrane.
A further data set deals with T2, Androgen receptor (Rattus norvegicus, UniProt P15207).
T2 sequence (P15207 whole entry): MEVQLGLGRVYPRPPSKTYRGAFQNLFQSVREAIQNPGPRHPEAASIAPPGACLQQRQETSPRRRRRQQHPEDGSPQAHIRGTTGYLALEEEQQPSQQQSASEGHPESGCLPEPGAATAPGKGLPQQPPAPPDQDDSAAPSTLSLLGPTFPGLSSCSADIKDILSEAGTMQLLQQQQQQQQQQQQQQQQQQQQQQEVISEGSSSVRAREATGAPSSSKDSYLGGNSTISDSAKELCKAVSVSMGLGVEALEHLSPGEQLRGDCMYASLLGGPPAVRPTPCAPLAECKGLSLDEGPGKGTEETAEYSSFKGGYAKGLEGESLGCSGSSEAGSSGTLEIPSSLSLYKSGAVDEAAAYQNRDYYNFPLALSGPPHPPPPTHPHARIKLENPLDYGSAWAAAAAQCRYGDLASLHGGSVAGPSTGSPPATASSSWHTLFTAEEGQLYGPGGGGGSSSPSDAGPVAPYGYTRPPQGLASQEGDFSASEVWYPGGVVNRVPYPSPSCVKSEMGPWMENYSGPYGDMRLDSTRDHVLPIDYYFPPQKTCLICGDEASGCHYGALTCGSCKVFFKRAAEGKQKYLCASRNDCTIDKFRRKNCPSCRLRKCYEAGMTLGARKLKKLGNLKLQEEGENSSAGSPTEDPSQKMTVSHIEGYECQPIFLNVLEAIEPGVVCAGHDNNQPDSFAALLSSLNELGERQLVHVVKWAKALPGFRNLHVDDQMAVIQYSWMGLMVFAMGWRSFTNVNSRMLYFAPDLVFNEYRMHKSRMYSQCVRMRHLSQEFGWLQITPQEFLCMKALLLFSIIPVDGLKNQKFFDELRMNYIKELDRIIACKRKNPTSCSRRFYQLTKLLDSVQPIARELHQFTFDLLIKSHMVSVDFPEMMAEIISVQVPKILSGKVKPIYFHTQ

A further data set has as its target T3, Glucocorticoid receptor (Homo sapiens, UniProt P04150). Also: in other assays of this panel Not Active means under 50% inhibition at 10 µM.
T3 sequence (P04150 whole entry): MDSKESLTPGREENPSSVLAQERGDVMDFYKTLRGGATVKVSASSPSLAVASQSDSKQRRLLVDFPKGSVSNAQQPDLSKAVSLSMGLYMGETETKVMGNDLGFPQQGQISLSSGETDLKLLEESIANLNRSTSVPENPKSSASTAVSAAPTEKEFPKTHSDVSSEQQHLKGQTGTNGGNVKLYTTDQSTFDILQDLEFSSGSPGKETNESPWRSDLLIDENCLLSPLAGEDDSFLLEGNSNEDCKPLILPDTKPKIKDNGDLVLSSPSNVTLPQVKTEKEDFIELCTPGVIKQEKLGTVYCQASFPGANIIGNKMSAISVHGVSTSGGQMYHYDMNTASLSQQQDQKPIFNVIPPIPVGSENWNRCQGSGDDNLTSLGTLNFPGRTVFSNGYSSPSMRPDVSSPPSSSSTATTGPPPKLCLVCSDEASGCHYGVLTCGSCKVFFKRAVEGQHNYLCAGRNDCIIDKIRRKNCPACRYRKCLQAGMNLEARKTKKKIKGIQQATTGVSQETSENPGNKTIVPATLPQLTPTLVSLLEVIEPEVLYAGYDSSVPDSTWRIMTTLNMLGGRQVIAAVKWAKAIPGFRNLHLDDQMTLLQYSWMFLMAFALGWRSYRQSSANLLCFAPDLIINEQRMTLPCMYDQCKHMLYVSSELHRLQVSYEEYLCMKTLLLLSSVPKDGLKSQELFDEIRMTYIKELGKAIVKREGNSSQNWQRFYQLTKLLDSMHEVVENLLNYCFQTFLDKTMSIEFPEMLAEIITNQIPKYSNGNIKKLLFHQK
The data set can be described thus: biochemical.

Cytochrome P450 2D6, sequence (P10635 whole entry): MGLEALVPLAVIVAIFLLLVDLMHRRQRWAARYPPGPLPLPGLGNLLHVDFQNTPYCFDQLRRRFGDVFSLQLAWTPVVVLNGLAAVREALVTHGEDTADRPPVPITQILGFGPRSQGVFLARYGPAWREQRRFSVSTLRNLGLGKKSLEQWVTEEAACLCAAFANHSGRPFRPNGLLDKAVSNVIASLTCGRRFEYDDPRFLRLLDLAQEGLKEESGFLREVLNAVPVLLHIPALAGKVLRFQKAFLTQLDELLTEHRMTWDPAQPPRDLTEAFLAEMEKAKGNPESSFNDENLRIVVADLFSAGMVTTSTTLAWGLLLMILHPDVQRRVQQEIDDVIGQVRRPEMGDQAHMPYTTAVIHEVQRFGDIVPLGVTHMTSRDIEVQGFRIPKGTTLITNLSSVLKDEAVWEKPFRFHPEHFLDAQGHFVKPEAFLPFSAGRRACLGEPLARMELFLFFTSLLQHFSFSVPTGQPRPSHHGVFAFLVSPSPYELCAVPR
Beta-1 adrenergic receptor, sequence (P08588 whole entry): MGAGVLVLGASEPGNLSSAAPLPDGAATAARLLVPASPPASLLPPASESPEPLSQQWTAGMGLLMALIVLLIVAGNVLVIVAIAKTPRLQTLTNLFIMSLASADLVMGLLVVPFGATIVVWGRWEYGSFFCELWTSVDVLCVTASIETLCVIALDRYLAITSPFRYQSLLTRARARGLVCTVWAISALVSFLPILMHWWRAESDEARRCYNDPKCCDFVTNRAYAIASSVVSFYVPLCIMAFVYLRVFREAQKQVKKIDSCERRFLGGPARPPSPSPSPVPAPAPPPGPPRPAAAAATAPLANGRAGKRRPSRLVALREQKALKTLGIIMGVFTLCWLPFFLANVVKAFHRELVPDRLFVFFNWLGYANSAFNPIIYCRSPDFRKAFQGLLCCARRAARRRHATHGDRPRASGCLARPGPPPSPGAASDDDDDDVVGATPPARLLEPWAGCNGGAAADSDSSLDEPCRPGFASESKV

As to `CC[C@]1(O)CC[C@H]2[C@@H]3CCC4=CCCC[C@@H]4[C@H]3CC[C@@]21C`, the IC50 result in data set [1] is “Not Active”; on Cytochrome P450 2C19, 1290 nM; in data set [2] it was “Not Active”; at Cytochrome P450 2D6, “Not Active”; on D(4) dopamine receptor it was “Not Active”; in data set [3] it was “Not Active”. Besides, the Ki entry (at Cytochrome P450 2D6; in data set [3]) was “Not Active” throughout.

Regarding `O=C(c1ccccc1Cl)N1CCC(Cc2ccccc2)CC1`, the IC50 result in data set [1] is “Not Active”; on Cytochrome P450 2C19, 200 nM; in data set [2], “Not Active”; at Cytochrome P450 2D6, “Not Active”; at D(4) dopamine receptor, “Not Active”; in data set [3], “Not Active”. At Androgen receptor, the IC50 result was “Not Active”. The Ki entry (at Cytochrome P450 2D6; in data set [3]) was “Not Active” in each case.

As to `C#C[C@]1(O)CC[C@H]2[C@@H]3CCC4=Cc5oncc5C[C@]4(C)[C@H]3CC[C@@]21C` [DANAZOL], the IC50 result is “Not Active” in data set [1]; 4310 nM at Glucocorticoid receptor; “Not Active” in data set [2]; “Not Active” against Cytochrome P450 2D6; “Not Active” on D(4) dopamine receptor; “Not Active” in data set [3]. Besides, the values for the Ki (on Glucocorticoid receptor; at Cytochrome P450 2D6; in data set [3]) were 1960 nM, “Not Active” and “Not Active”, respectively.

In the case of `C#C[C@]1(O)CC[C@H]2[C@@H]3CCc4cc(O)ccc4[C@H]3CC[C@@]21C` [ETHINYL ESTRADIOL], the IC50 entry was “Not Active” in data set [1]; 1710 nM on Glucocorticoid receptor; “Not Active” in data set [2]; “Not Active” against Cytochrome P450 2D6; “Not Active” at D(4) dopamine receptor; “Not Active” in data set [3]. For the same molecule, the values for the Ki (on Glucocorticoid receptor; at Cytochrome P450 2D6; in data set [3]) were 777 nM, “Not Active” and “Not Active”, respectively.

With `CC(=O)O[C@]1(C(C)=O)CC[C@H]2[C@@H]3C=C(C)C4=CC(=O)CC[C@]4(C)[C@H]3CC[C@@]21C` [MEGESTROL ACETATE], the IC50 entry is “Not Active” in data set [1]; 19 nM against Glucocorticoid receptor; “Not Active” in data set [2]; “Not Active” on Cytochrome P450 2D6; “Not Active” on D(4) dopamine receptor; “Not Active” in data set [3]. Also, the values for the Ki (at Glucocorticoid receptor; at Cytochrome P450 2D6; in data set [3]) were 8.77 nM, “Not Active” and “Not Active”, respectively.

For `CN(Cc1cnc2nc(N)nc(N)c2n1)c1ccc(C(=O)N[C@@H](CCC(=O)O)C(=O)O)cc1` [METHOTREXATE], the IC50 entry (in data set [1]; in data set [2]; on Cytochrome P450 2D6; at D(4) dopamine receptor; in data set [3]; against Androgen receptor) was “Not Active” in each case. Moreover, the Ki entry (on Cytochrome P450 2D6; in data set [3]) was “Not Active” each time.

For the molecule `CNC(=C[N+](=O)[O-])NCCSCc1csc(CN(C)C)n1` [NIZATIDINE], the IC50 result (in data set [1]; in data set [2]; against Cytochrome P450 2D6; at D(4) dopamine receptor; in data set [3]; against Androgen receptor) was “Not Active” throughout. The Ki entry (on Cytochrome P450 2D6; in data set [3]) was “Not Active” throughout.

As for `COc1ccc(Cc2nccc3cc(OC)c(OC)cc23)cc1OC` [PAPAVERINE], the IC50 result in data set [1] was “Not Active”; on Cytochrome P450 2C19, 762 nM; in data set [2] it was “Not Active”; against Cytochrome P450 2D6, “Not Active”; at D(4) dopamine receptor, “Not Active”; in data set [3] it was “Not Active”. In addition, the IC50 result against Androgen receptor is “Not Active”. The Ki result (on Cytochrome P450 2D6; in data set [3]) was “Not Active” in each case.

On to `Cc1cccc(Nc2cc(Cl)nc(SCC(=O)O)n2)c1C` [PIRINIXIC ACID], for which the IC50 result (in data set [1]; in data set [2]; on Cytochrome P450 2D6; on D(4) dopamine receptor; in data set [3]; against Androgen receptor) was “Not Active” throughout. The Ki result (at Cytochrome P450 2D6; in data set [3]) was “Not Active” throughout.

Turning to COBALT(II) ACETYLACETONATE, the IC50 result (in data set [1]; in data set [2]; at Cytochrome P450 2D6; on D(4) dopamine receptor; in data set [3]; against Androgen receptor) was “Not Active” in each case. Also, the Ki result (in data set [1]; in data set [2]; on Cytochrome P450 2D6; on D(4) dopamine receptor; in data set [3]; on Androgen receptor) was “Not Active” throughout.

INSULIN HUMAN: the IC50 result (in data set [1]; in data set [2]; against Cytochrome P450 2D6; on D(4) dopamine receptor; in data set [3]; against Androgen receptor) was “Not Active” in each case. The Ki entry (in data set [1]; in data set [2]; at Cytochrome P450 2D6; at D(4) dopamine receptor; in data set [3]; at Androgen receptor) was “Not Active” throughout.

With POLYVINYL ALCOHOL, the IC50 entry (in data set [1]; in data set [2]; against Cytochrome P450 2D6; on D(4) dopamine receptor; in data set [3]; against Androgen receptor) was “Not Active” in each case. Further, the Ki entry (in data set [1]; in data set [2]; at Cytochrome P450 2D6; on D(4) dopamine receptor; in data set [3]; on Androgen receptor) was “Not Active” throughout.

The term IC50 denotes the concentration that gives 50% inhibition. Read a high IC50 as weaker potency in that assay. As usually defined, the Ki is a dissociation constant, usually derived from enzyme kinetics or from competition with a known ligand. Low values mean a stronger hold on the target, high ones a looser hold on the target.
